{"source": "patent US11090313B2", "about": "“Methods for inhibiting muscle atrophy” (UNIVERSITY OF IOWA RESEARCH FOUNDATION, priority 2010, dated 2021)", "format_in_all_cases": "in vivo, mouse", "key": {"C57BL/6 mice": {"test_system": "C57BL/6 mice", "experiment": "Fasting-induced muscle atrophy in mice (i.p. dosing, 24 h fast)", "conditions": "for skeletal muscle weight in fasted mice (fasting-induced muscle atrophy) / fasting blood glucose: i.p. at 0 and 12 h of 24 h fast; for skeletal muscle weight in fasted mice (fasting-induced muscle atrophy): vs vehicle, mg/kg: ursolic acid 200, oleanolic acid 200, metformin 250, tomatidine 50, allantoin 2, tacrine 4, ungerine 2, hippeastrine 2, conessine 2; for fasting blood glucose: mice, mg/kg: metformin 250, ursolic acid 200, hippeastrine 2, conessine 2", "protocol": "The mice were then fasted, and after 12 hours of fasting, the mice received a second dose of the compound or vehicle. After 24 hours of fasting, the blood glucose was measured and muscles were harvested. The data shown in FIGS. 6C-6H are means±SEM from ≤16 mice per condition. […] The effects of metformin and ursolic acid on fasting-induced muscle atrophy were also examined, i.e. the effect of 24 h fast (relative to ad lib feeding) on wet weight of lower hindlimb skeletal muscle (bilateral tibialis anterior (“TA” muscle), gastrocnemius, and soleus; see FIGS. 6E-6G). […] In FIGS. 6E-6H, each data point represents one mouse and the horizontal bars denote the means. In FIGS. 6C-6H, P-values were determined using unpaired t-tests.\nMice were then fasted, and after 12 hours of fasting, mice received a second dose of ursolic acid, oleanolic acid, or vehicle. After 24 hours of fasting, lower hindlimb skeletal muscles and liver were harvested and weighed.\nTo test this, food was withdrawn from mice, and then vehicle, ursolic acid (200 mg/kg) or tomatidine (50 mg/kg) were administered by i.p. injection. Twelve hours later, mice received another i.p. injection of vehicle or the same dose of ursolic acid or tomatidine. Twelve hours later, skeletal muscles were harvested and weighed. […] We next used the same protocol to compare the effects of vehicle (corn oil) and tomatidine (5, 15 and 50 mg/kg)."}, "mice [1]": {"test_system": "mice", "experiment": "Immobilization-induced skeletal muscle atrophy model (stapled tibialis anterior)", "conditions": "for immobilization-induced muscle atrophy (weights of immobile vs mobile TA): 2 days before and 6 days after immobilization, ursolic acid and betulinic acid varying doses, naringenin 200 mg/kg, tomatidine 5-200 mg/kg", "protocol": "To test this, a mouse model of immobilization-induced skeletal muscle atrophy was used: mice were administered vehicle (corn oil) or varying doses of ursolic acid (positive control) or betulinic acid via intraperitoneal injection twice a day for two days. One tibialis anterior (TA) muscle was immobilized with a surgical staple, leaving the contralateral mobile TA as an intra-subject control. The vehicle or the same dose of ursolic acid or betulinic acid was continuously administered via i.p. injection twice daily for six days before comparing weights of the immobile and mobile TAs.\nTo test this, mice were administered vehicle (corn oil), ursolic acid (200 mg/kg), naringenin (200 mg/kg), or the combination of ursolic acid and naringenin (each at 200 mg/kg) via i.p injection twice a day for two days. One tibialis anterior (TA) muscle was immobilized with a surgical staple, leaving the contralateral mobile TA as an intrasubject control. Vehicle or the same doses of ursolic acid and/or naringenin was continuously administered via i.p. injection twice daily for six days before comparing weights of the immobile and mobile TAs.\nTo test this, mice were administered vehicle (corn oil) or tomatidine (50, 100 or 200 mg/kg) via i.p injection twice a day for two days. One tibialis anterior (TA) muscle was immobilized with a surgical staple, leaving the contralateral mobile TA as an intrasubject control. Vehicle or the same doses of tomatidine was administered via i.p. injection twice daily for six days before comparing weights of the immobile and mobile TAs. […] The same protocol was used to compare the effects of vehicle (corn oil) and tomatidine (5, 15 or 50 mg/kg) on immobilization-induced muscle atrophy."}, "mice [2]": {"test_system": "mice", "experiment": "High fat diet with ursolic acid and/or naringenin", "conditions": "HFD with ursolic acid 0.15% and/or naringenin 0.5% or 1.5%, 5 weeks", "protocol": "To determine this, weight-matched mice were provided ad libitum access to standard (Harlan Teklad formula 7013), high fat diet (HFD; Harlan Teklad formula TD93075), or HFD containing varying concentrations of ursolic acid (0.15%) and/or naringenin (0.5% or 1.5%). After the mice consumed these diets for 5 weeks, fasting blood glucose, total body weight, fat mass, liver weight, grip strength, and skeletal muscle weight was measured."}}, "note": "“Also recorded” adds a separate entry of the source.", "data": [{"smiles": "CN1CCC2=C[C@@H](O)[C@@H]3OC(=O)c4cc5c(cc4[C@@H]3[C@H]21)OCO5", "note": "[hippeastrine]", "values": [{"measurement": "skeletal muscle weight in fasted mice (fasting-induced muscle atrophy)", "setting": "C57BL/6 mice", "result": "increased muscle weight in fasted mice; also recorded: reduce fasting-induced muscle atrophy"}, {"measurement": "fasting blood glucose", "setting": "C57BL/6 mice", "result": "reduce fasting blood glucose"}]}, {"smiles": "NC(=O)NC1NC(=O)NC1=O", "note": "(stereo not drawn) [allantoin]", "values": [{"measurement": "skeletal muscle weight in fasted mice (fasting-induced muscle atrophy)", "setting": "C57BL/6 mice", "result": "increased muscle weight in fasted mice; also recorded: reduce fasting-induced muscle atrophy"}]}, {"smiles": "C[C@H]1[C@H]2CC[C@H]3[C@@H]4CC=C5C[C@@H](N(C)C)CC[C@]5(C)[C@H]4CC[C@]23CN1C", "note": "[conessine]", "values": [{"measurement": "skeletal muscle weight in fasted mice (fasting-induced muscle atrophy)", "setting": "C57BL/6 mice", "result": "increased muscle weight in fasted mice; also recorded: reduce fasting-induced muscle atrophy"}, {"measurement": "fasting blood glucose", "setting": "C57BL/6 mice", "result": "reduce fasting blood glucose"}]}, {"smiles": "CO[C@@H]1C=C2CCN(C)[C@@H]2[C@H]2c3cc4c(cc3C(=O)O[C@H]21)OCO4", "note": "[ungerine]", "values": [{"measurement": "skeletal muscle weight in fasted mice (fasting-induced muscle atrophy)", "setting": "C57BL/6 mice", "result": "increased muscle weight in fasted mice; also recorded: reduce fasting-induced muscle atrophy"}]}, {"smiles": "O=C1CC(c2ccc(O)cc2)Oc2cc(O)cc(O)c21", "note": "(stereo not drawn) [naringenin]", "values": [{"measurement": "immobilization-induced muscle atrophy (weights of immobile vs mobile TA)", "setting": "mice [1]; i.p. twice daily", "result": "reduced muscle atrophy; also recorded: reduces immobilization-induced skeletal muscle atrophy"}, {"measurement": "fasting blood glucose in high fat fed mice", "setting": "mice [2]", "result": "partially prevented"}]}, {"smiles": "Nc1c2c(nc3ccccc13)CCCC2", "note": "[tacrine, reference compound]", "values": [{"measurement": "skeletal muscle weight in fasted mice (fasting-induced muscle atrophy)", "setting": "C57BL/6 mice", "result": "increased muscle weight in fasted mice; also recorded: reduce fasting-induced muscle atrophy"}]}, {"smiles": "CC1(C)CC[C@]2(C(=O)O)CC[C@]3(C)C(=CC[C@@H]4[C@@]5(C)CC[C@H](O)C(C)(C)[C@@H]5CC[C@]43C)[C@@H]2C1", "note": "[oleanolic acid, reference compound]", "values": [{"measurement": "skeletal muscle weight in fasted mice (fasting-induced muscle atrophy)", "setting": "C57BL/6 mice", "result": "do not reduce skeletal muscle atrophy"}]}, {"smiles": "C[C@H]1CC[C@]2(NC1)O[C@H]1C[C@H]3[C@@H]4CC[C@H]5C[C@@H](O)CC[C@]5(C)[C@H]4CC[C@]3(C)[C@H]1[C@@H]2C", "note": "[tomatidine]", "values": [{"measurement": "skeletal muscle weight in fasted mice (fasting-induced muscle atrophy)", "setting": "C57BL/6 mice", "result": "increased skeletal muscle; also recorded: increased muscle weight in fasted mice; also recorded: reduces fasting-induced muscle atrophy"}, {"measurement": "dose of maximal effect on fasting-induced muscle atrophy", "setting": "C57BL/6 mice; tomatidine 5, 15 and 50 mg/kg i.p. twice, 24 h fast", "result": 50, "unit": "mg/kg"}, {"measurement": "dose of maximal inhibition of immobilization-induced muscle atrophy", "setting": "mice [1]; i.p. twice daily", "result": 50, "unit": "mg/kg"}, {"measurement": "potency relative to ursolic acid in immobilization-induced muscle atrophy", "setting": "mice [1]; i.p. twice daily", "result": "more potent than ursolic acid"}, {"measurement": "immobilization-induced muscle atrophy (weights of immobile vs mobile TA)", "setting": "mice [1]; i.p. twice daily", "result": "reduced muscle atrophy; also recorded: reduces immobilization-induced muscle atrophy"}, {"measurement": "EC50, reduction of immobilization-induced muscle atrophy", "setting": "mice [1]; tomatidine 5, 15 or 50 mg/kg i.p. twice daily", "result": "< 5", "unit": "mg/kg"}]}, {"smiles": "CN(C)C(=N)N=C(N)N", "note": "[metformin, reference compound]", "values": [{"measurement": "skeletal muscle weight in fasted mice (fasting-induced muscle atrophy)", "setting": "C57BL/6 mice", "result": "did not alter muscle weight; also recorded: do not reduce skeletal muscle atrophy"}, {"measurement": "fasting blood glucose", "setting": "C57BL/6 mice", "result": "significantly reduced fasting blood glucose"}]}]}
